Laboratory results published in patent US9439432B2, “Phenylisoxazoline-based compound having herbicidal activity and use thereof” (MOGHU RESEARCH CENTER LTD, priority 2011, dated 2016).

Tests used:
Assay type in all cases: in vivo
Cotton [1] = assay: Pre-emergence treatment, phytotoxicity to cotton; conditions: 500 g/ha, 4 weeks after spraying, scale 0 to 10 (0: no effects, 10: complete death)
Procedure: (§1) A rectangular plastic pot having a surface area of 300 cm^2 was filled with sandy loam soil and mixed bed soil which were mixed at a ratio of 1:1, and then, barnyardrass (Echinochloa crusgalli), large crabgrass (Digitaria sanguinalis), blackgrass (Alopecurus myosuroides), and annual bluegrass (Poa annua), which are grass weeds, were seeded thereto. In a pot that was prepared as described above, seeds of corn, soybean, cotton, wheat, and rice were seeded. The pots were irrigated, and one day after, chemicals were sprayed thereto. The spraying was performed by using a track sprayer (R&D Sprayer, USA) equipped with a Teejet 8002 (Spraying Systems Co., USA) nozzle, and a spraying amount was adjusted at 300 L/ha. A spraying solution was prepared by dissolving test materials or references in acetone and adding the same amount of 0.2%(v/v) tween 20 aqueous solution thereto. Application rates were 500, 250, 125, and 62.5 g/ha. The pots were placed in a greenhouse in which during day, the temperature was maintained at a temperature of 25 to 30° C., and during night, the temperature was maintained at a temperature of 15 to 25° C., and the pots were periodically irrigated. Four weeks after the spraying the test materials or References, effects and phytotoxicity of the respective weeds and crops were evaluated in a scale of 0 to 10 (0: no effects, 10: complete death), and results thereof are shown in Table 4 below.

Alopecurus myosuroides [2] = assay: Post-emergence treatment, herbicidal efficacy on blackgrass; conditions: 4 weeks after spraying, scale 0 to 10
Procedure: as §1
(§2) Pots containing crops and weeds were prepared in the same manner as in Example 7, and then, in the second week in which crops and weeds entered into about 3 leaf stage, the test materials and the references were sprayed thereto in the same manner as described above. The rates were 1,000, 500, 250, and 125 g/ha. Four weeks after the spraying of the test materials or the references, herbicidal efficacy and phytotoxicity to the respective weeds and crops were evaluated in a scale of 0 to 10 (0: no effects, 10: complete death).

Poa annua [3] = assay: Pre-emergence treatment, herbicidal efficacy on annual bluegrass; conditions: 4 weeks after spraying, scale 0 to 10
Procedure: as §1

Digitaria sanguinalis [4] = assay: Post-emergence treatment, herbicidal efficacy on large crabgrass; conditions: 4 weeks after spraying, scale 0 to 10
Procedure: as §1, §2

Rice [5] = assay: Post-emergence treatment, phytotoxicity to rice; conditions: post-emergence (about 3 leaf stage), 1,000 g/ha, 4 weeks after spraying, scale 0 to 10 (0: no effects, 10: complete death)
Procedure: as §1, §2

[6] = system: grass weeds including barnyardrass, large crabgrass, and annual bluegrass; assay: Pre-emergence treatment, grass weeds overall; conditions: relative to reference compounds
Procedure: as §1

Corn [7] = assay: Pre-emergence treatment, phytotoxicity to corn; conditions: 500 g/ha, 4 weeks after spraying, scale 0 to 10 (0: no effects, 10: complete death)
Procedure: as §1

Soybean [8] = assay: Pre-emergence treatment, phytotoxicity to soybean; conditions: 500 g/ha, 4 weeks after spraying, scale 0 to 10 (0: no effects, 10: complete death)
Procedure: as §1

Alopecurus myosuroides [9] = assay: Pre-emergence treatment, herbicidal efficacy on blackgrass; conditions: 4 weeks after spraying, scale 0 to 10
Procedure: as §1

Echinochloa crusgalli [10] = assay: Pre-emergence treatment, herbicidal efficacy on barnyardgrass; conditions: 4 weeks after spraying
Procedure: as §1

Cotton [11] = assay: Post-emergence treatment, phytotoxicity to cotton; conditions: post-emergence (about 3 leaf stage), 1,000 g/ha, 4 weeks after spraying, scale 0 to 10 (0: no effects, 10: complete death)
Procedure: as §1, §2

Digitaria sanguinalis [12] = assay: Pre-emergence treatment, herbicidal efficacy on large crabgrass; conditions: 4 weeks after spraying, scale 0 to 10
Procedure: as §1

Wheat [13] = assay: Post-emergence treatment, phytotoxicity to wheat; conditions: post-emergence (about 3 leaf stage), 1,000 g/ha, 4 weeks after spraying, scale 0 to 10 (0: no effects, 10: complete death)
Procedure: as §1, §2

Poa annua [14] = assay: Post-emergence treatment, herbicidal efficacy on annual bluegrass; conditions: 4 weeks after spraying, scale 0 to 10
Procedure: as §1, §2

Rice [15] = assay: Pre-emergence treatment, phytotoxicity to rice; conditions: 500 g/ha, 4 weeks after spraying, scale 0 to 10 (0: no effects, 10: complete death)
Procedure: as §1

Soybean [16] = assay: Post-emergence treatment, phytotoxicity to soybean; conditions: post-emergence (about 3 leaf stage), 1,000 g/ha, 4 weeks after spraying, scale 0 to 10 (0: no effects, 10: complete death)
Procedure: as §1, §2

Corn [17] = assay: Post-emergence treatment, phytotoxicity to corn; conditions: post-emergence (about 3 leaf stage), 1,000 g/ha, 4 weeks after spraying, scale 0 to 10 (0: no effects, 10: complete death)
Procedure: as §1, §2

Echinochloa crusgalli [18] = assay: Post-emergence treatment, herbicidal efficacy on barnyardgrass; conditions: 4 weeks after spraying, scale 0 to 10
Procedure: as §1, §2

Wheat [19] = assay: Pre-emergence treatment, phytotoxicity to wheat; conditions: 500 g/ha, 4 weeks after spraying, scale 0 to 10 (0: no effects, 10: complete death)
Procedure: as §1

[20] = 500 g/ha, scale 0 to 10 (0: no effects, 10: complete death)

SMILES: CC1(COCc2c(F)cccc2F)CC(c2ccccc2Cl)=NO1 (stereo not shown) [Compound 2, 3-(2-chlorophenyl)-5-((2,6-difluorobenzyloxy)methyl)-5-methyl-4,5-dihydroisoxazole]
- Phytotoxicity, Cotton (Cotton [1]): 0
- Herbicidal efficacy, Alopecurus myosuroides (Alopecurus myosuroides [2]; post-emergence, 125 g/ha): 1
- Herbicidal efficacy, Alopecurus myosuroides (Alopecurus myosuroides [2]; post-emergence, 250 g/ha): 5
- Herbicidal efficacy, Alopecurus myosuroides (Alopecurus myosuroides [2]; post-emergence, 500 g/ha): 7
- Herbicidal efficacy, Alopecurus myosuroides (Alopecurus myosuroides [2]; post-emergence, 1,000 g/ha): 9
- Herbicidal efficacy, Poa annua (Poa annua [3]; 62.5 g/ha): 8
- Herbicidal efficacy, Poa annua (Poa annua [3]; 125 g/ha): 9
- Herbicidal efficacy, Poa annua (Poa annua [3]; 250 g/ha): 10
- Herbicidal efficacy, Poa annua (Poa annua [3]; 500 g/ha): 10
- Herbicidal efficacy, Digitaria sanguinalis (Digitaria sanguinalis [4]; post-emergence, 125 g/ha): 5
- Herbicidal efficacy, Digitaria sanguinalis (Digitaria sanguinalis [4]; post-emergence, 250 g/ha): 5
- Herbicidal efficacy, Digitaria sanguinalis (Digitaria sanguinalis [4]; post-emergence, 500 g/ha): 6
- Herbicidal efficacy, Digitaria sanguinalis (Digitaria sanguinalis [4]; post-emergence, 1,000 g/ha): 10
- Phytotoxicity, Rice (Rice [5]): 1
- efficacy stronger than the References [6]: about 4 times
- Phytotoxicity, Corn (Corn [7]): 0
- Phytotoxicity, Soybean (Soybean [8]): 0
- Herbicidal efficacy, Alopecurus myosuroides (Alopecurus myosuroides [9]; 62.5 g/ha): 2
- Herbicidal efficacy, Alopecurus myosuroides (Alopecurus myosuroides [9]; 125 g/ha): 3
- Herbicidal efficacy, Alopecurus myosuroides (Alopecurus myosuroides [9]; 250 g/ha): 6
- Herbicidal efficacy, Alopecurus myosuroides (Alopecurus myosuroides [9]; 500 g/ha): 10
- Herbicidal efficacy, Echinochloa crusgalli (Echinochloa crusgalli [10]; 62.5 g/ha, scale 0 to 10): 9
- Herbicidal efficacy, Echinochloa crusgalli (Echinochloa crusgalli [10]; 125 g/ha, scale 0 to 10): 10
- Herbicidal efficacy, Echinochloa crusgalli (Echinochloa crusgalli [10]; 250 g/ha, scale 0 to 10): 10
- Herbicidal efficacy, Echinochloa crusgalli (Echinochloa crusgalli [10]; [20]): 10
- Phytotoxicity, Cotton (Cotton [11]): 1
- Herbicidal efficacy, Digitaria sanguinalis (Digitaria sanguinalis [12]; 62.5 g/ha): 9
- Herbicidal efficacy, Digitaria sanguinalis (Digitaria sanguinalis [12]; 125 g/ha): 10
- Herbicidal efficacy, Digitaria sanguinalis (Digitaria sanguinalis [12]; 250 g/ha): 10
- Herbicidal efficacy, Digitaria sanguinalis (Digitaria sanguinalis [12]; 500 g/ha): 10
- Phytotoxicity, Wheat (Wheat [13]): 1
- Herbicidal efficacy, Poa annua (Poa annua [14]; post-emergence, 125 g/ha): 5
- Herbicidal efficacy, Poa annua (Poa annua [14]; post-emergence, 250 g/ha): 8
- Herbicidal efficacy, Poa annua (Poa annua [14]; post-emergence, 500 g/ha): 8
- Herbicidal efficacy, Poa annua (Poa annua [14]; post-emergence, 1,000 g/ha): 10
- Phytotoxicity, Rice (Rice [15]): 0
- Phytotoxicity, Soybean (Soybean [16]): 1
- Phytotoxicity, Corn (Corn [17]): 2
- Herbicidal efficacy, Echinochloa crusgalli (Echinochloa crusgalli [18]; post-emergence, 125 g/ha): 0
- Herbicidal efficacy, Echinochloa crusgalli (Echinochloa crusgalli [18]; post-emergence, 250 g/ha): 5
- Herbicidal efficacy, Echinochloa crusgalli (Echinochloa crusgalli [18]; post-emergence, 500 g/ha): 8
- Herbicidal efficacy, Echinochloa crusgalli (Echinochloa crusgalli [18]; post-emergence, 1,000 g/ha): 10
- Phytotoxicity, Wheat (Wheat [19]): 0

SMILES: Cc1cccc(C2=NOC(C)(COCc3c(F)cccc3F)C2)c1 (stereo not shown) [Reference F]
- Phytotoxicity, Cotton (Cotton [1]): 0
- Herbicidal efficacy, Alopecurus myosuroides (Alopecurus myosuroides [2]; post-emergence, 125 g/ha): 0
- Herbicidal efficacy, Alopecurus myosuroides (Alopecurus myosuroides [2]; post-emergence, 250 g/ha): 0
- Herbicidal efficacy, Alopecurus myosuroides (Alopecurus myosuroides [2]; post-emergence, 500 g/ha): 2
- Herbicidal efficacy, Alopecurus myosuroides (Alopecurus myosuroides [2]; post-emergence, 1,000 g/ha): 4
- Herbicidal efficacy, Poa annua (Poa annua [3]; 62.5 g/ha): 0
- Herbicidal efficacy, Poa annua (Poa annua [3]; 125 g/ha): 0
- Herbicidal efficacy, Poa annua (Poa annua [3]; 250 g/ha): 5
- Herbicidal efficacy, Poa annua (Poa annua [3]; 500 g/ha): 9
- Herbicidal efficacy, Digitaria sanguinalis (Digitaria sanguinalis [4]; post-emergence, 125 g/ha): 0
- Herbicidal efficacy, Digitaria sanguinalis (Digitaria sanguinalis [4]; post-emergence, 250 g/ha): 3
- Herbicidal efficacy, Digitaria sanguinalis (Digitaria sanguinalis [4]; post-emergence, 500 g/ha): 4
- Herbicidal efficacy, Digitaria sanguinalis (Digitaria sanguinalis [4]; post-emergence, 1,000 g/ha): 6
- Phytotoxicity, Rice (Rice [5]): 0
- Phytotoxicity, Corn (Corn [7]): 1
- Phytotoxicity, Soybean (Soybean [8]): 0
- Herbicidal efficacy, Alopecurus myosuroides (Alopecurus myosuroides [9]; 62.5 g/ha): 0
- Herbicidal efficacy, Alopecurus myosuroides (Alopecurus myosuroides [9]; 125 g/ha): 0
- Herbicidal efficacy, Alopecurus myosuroides (Alopecurus myosuroides [9]; 250 g/ha): 0
- Herbicidal efficacy, Alopecurus myosuroides (Alopecurus myosuroides [9]; 500 g/ha): 3
- Herbicidal efficacy, Echinochloa crusgalli (Echinochloa crusgalli [10]; 62.5 g/ha, scale 0 to 10): 0
- Herbicidal efficacy, Echinochloa crusgalli (Echinochloa crusgalli [10]; 125 g/ha, scale 0 to 10): 1
- Herbicidal efficacy, Echinochloa crusgalli (Echinochloa crusgalli [10]; 250 g/ha, scale 0 to 10): 5
- Herbicidal efficacy, Echinochloa crusgalli (Echinochloa crusgalli [10]; [20]): 10
- Phytotoxicity, Cotton (Cotton [11]): 0
- Herbicidal efficacy, Digitaria sanguinalis (Digitaria sanguinalis [12]; 62.5 g/ha): 1
- Herbicidal efficacy, Digitaria sanguinalis (Digitaria sanguinalis [12]; 125 g/ha): 2
- Herbicidal efficacy, Digitaria sanguinalis (Digitaria sanguinalis [12]; 250 g/ha): 6
- Herbicidal efficacy, Digitaria sanguinalis (Digitaria sanguinalis [12]; 500 g/ha): 10
- Phytotoxicity, Wheat (Wheat [13]): 0
- Herbicidal efficacy, Poa annua (Poa annua [14]; post-emergence, 125 g/ha): 0
- Herbicidal efficacy, Poa annua (Poa annua [14]; post-emergence, 250 g/ha): 3
- Herbicidal efficacy, Poa annua (Poa annua [14]; post-emergence, 500 g/ha): 5
- Herbicidal efficacy, Poa annua (Poa annua [14]; post-emergence, 1,000 g/ha): 6
- Phytotoxicity, Rice (Rice [15]): 0
- Phytotoxicity, Soybean (Soybean [16]): 0
- Phytotoxicity, Corn (Corn [17]): 2
- Herbicidal efficacy, Echinochloa crusgalli (Echinochloa crusgalli [18]; post-emergence, 125 g/ha): 0
- Herbicidal efficacy, Echinochloa crusgalli (Echinochloa crusgalli [18]; post-emergence, 250 g/ha): 3
- Herbicidal efficacy, Echinochloa crusgalli (Echinochloa crusgalli [18]; post-emergence, 500 g/ha): 4
- Herbicidal efficacy, Echinochloa crusgalli (Echinochloa crusgalli [18]; post-emergence, 1,000 g/ha): 6
- Phytotoxicity, Wheat (Wheat [19]): 0
